Entries after “also recorded” stand apart in the source; their conditions may differ. Read-outs that look alike come from different tables or passages of the source. No end group written: not given here.
What was measured:
PSA [1] = experiment: MIC determination by broth microdilution; assay type: cell-based, Pseudomonas syringae pv. actinidiae; details: PSA 10^5 CFU/mL, LB, 28° C., 24 h, OD600
Method: The MIC was determined by a broth microdilution method (Mishra et al., 2017, Individual and combined effects of engineered peptides and antibiotics on Pseudomonas aeruginosa biofilms). PSA cells in a logarithmic growth phase were diluted to 10^5 colony forming units (CFU)/mL with an LB liquid medium (including 10 g/L peptone, 5 g/L yeast extract powder, and 10 g/L NaCl), and added into a 96-well microplate that was preloaded with different concentrations of the AMP synthesized in Example 1 (1.56 μg/mL to 200 μg/mL) or agricultural streptomycin (AS) (125 μg/mL to 4,000 μg/mL). After incubation at 28° C. for 24 h, an absorbance at 600 nm (OD600) of each sample was measured using a Multiskan FC microplate reader (Thermo Fisher Scientific, Waltham, USA); while sterile water was used as a control.

PSA [2] = experiment: Control effect and bacterial load on kiwifruit leaves inoculated with PSA; assay type: in vivo, Pseudomonas syringae pv. actinidiae on kiwifruit; details: 1 MIC; for disease control effect: kiwifruit leaves inoculated with PSA, lesion area vs control; for bacterial load in leaves: kiwifruit leaves, 96 h
Method: The method of Bai et al. (2022, Application of phage therapy against red-fleshed kiwifruit canker) was selected to evaluate a control effect of the AMP synthesized in Example 1 on kiwifruit leaves inoculated with PSA. The leaves were injured with a syringe needle and covered with a filter paper (ϕ=1 cm) containing 50 μL of PSA (10^8 CFU/mL). After 2 h, 1 MIC of AMP or AS was added; while the PBS was used as a control. The kiwifruit plants were cultured for 96 h at 25±1° C., 70±5% relative humidity (RH), and a photoperiod of 16 h: 8 h. The lesion area and the number of colonies were counted every 48 h, and the disease control effect (%) was calculated using the following formula: Control effect (%)=(1−Lesion areatreatment/Lesion areacontrol)×100%
Bacterial load in leaves was determined according to a colony count method of Barrett-Manako et al. (2021, Real-time PCR and droplet digital PCR are accurate and reliable methods to quantify Pseudomonas syringae pv. actinidiae biovar 3 in kiwifruit infected plantlets). Leaves were collected, washed with sterile water, and homogenized with PBS. A homogenate was inoculated into a King's B solid medium (supplemented with nitrofurantoin at 12.5 μg/mL and cephalexin at 40 μg/mL). After incubation at 28° C. for 48 h, the colonies were counted to calculate lg CFU/cm^2. Colonies were confirmed by PCR using specific primers for the 16S-23SrDNA-ITS sequence of PSA (Table 1), and sequenced.

PSA cells [3] = experiment: ROS level (DCFH-DA fluorescence); assay type: cell-based, Pseudomonas syringae pv. actinidiae
Method: The reactive oxygen species (ROS) level of PSA treated with the AMP synthesized in Example 1 was evaluated using a ROS detection kit (LabLead, Beijing, China). PSA cells (10^7 CFU/mL) were incubated with different concentrations of the AMPs (0.5 MIC to 2 MICs) at 28° C. for 2 h. At the same time, sterile water was set as a control. The cells were resuspended in PBS and then incubated with 10 μM of 2′,7′-dichlorodihydrofluorescein diacetate (DCFH-DA) for 30 min at 28° C. Fluorescence intensity was measured at excitation/emission wavelengths of 485 nm/525 nm using a SpectraMax i3 microplate reader (Molecular Devices, San Jose, USA).

PSA [4] = assay type: cell-based, Pseudomonas syringae pv. actinidiae
Method: The samples in the wells with a concentration of greater than 1 MIC during the MIC determination in step 1 were spread on an LB agar plate (including 10 g/L peptone, 5 g/L yeast extract powder, 10 g/L NaCl, and 15 g/L agar), and the colonies were counted after incubation at 28° C. for 48 h.

PSA cells [5] = experiment: SEM and TEM observation of PSA cells; assay type: cell-based, Pseudomonas syringae pv. actinidiae; details: 1 MIC, 2 h, 28° C.
Method: Scanning electron microscopy (SEM) and Transmission electron microscopy (TEM) were used to observe the morphological and intracellular changes of the PSA cells treated with the AMP synthesized in Example 1. PSA cells (10^7 CFU/mL) were incubated with the AMP (1 MIC) for 2 h at 28° C.; while sterile water was used as a control. For SEM, cell samples were prepared according to a protocol of Juba et al. (2015, Helical cationic antimicrobial peptide length and its impact on membrane disruption) and observed under a Hitachi SU8100 SEM (Tokyo, Japan). For TEM, cell samples were prepared according to a method of Nguyen et al. (2021, Comparison of two transmission electron microscopy methods to visualize drug-induced alterations of gram-negative bacterial morphology) and observed under a Hitachi HT-7700 TEM (Tokyo, Japan).

[6] = tested on: intracellular esterase of PSA; experiment: Intracellular esterase activity (FDA fluorescence); assay type: cell-based, Pseudomonas syringae pv. actinidiae; details: 1 MIC, at 120 min
Method: The intracellular esterase activity of PSA was measured with fluorescein diacetate (FDA). PSA cells (10^7 CFU/mL) were added to a black 96-well microplate preloaded with 1 MIC of the AMP synthesized in Example 1. The cells in each well were mixed with 10 mM of the FDA and incubated at 28° C. for 10 min. Fluorescence intensity was measured at excitation wavelengths of 480 nm/530 nm using the SpectraMax i3 microplate reader (Molecular Devices, San Jose, USA), respectively.

PSA cells [7] = experiment: Calcium ion leakage of PSA cells; assay type: cell-based, Pseudomonas syringae pv. actinidiae; details: after 120 min of treatment; increased from 8.70 μM
[8] = tested on: DNA replication (dnaA and dnaB) and DNA repair (recA and recN) genes; experiment: RT-qPCR of DNA replication and repair genes; assay type: cell-based, Pseudomonas syringae pv. actinidiae; details: 1 MIC, 28° C., 2 h
Method: PSA cells (10^7 CFU/mL) were incubated with 1 MIC of the AMP synthesized in Example 1 at 28° C. for 2 h. At the same time, sterile water was set as a control. A total RNA was extracted, and cDNA was synthesized using PrimeScript RT Master Mix (Takara, Dalian, China). The expression of DNA replication (dnaA and dnaB) and DNA repair (recA and recN) genes were detected by reverse transcription-quantitative PCR (RT-qPCR). The RT-qPCR was conducted with a mixed system including 10 μL of Masser Mix (Tsinke, Beijing, China), 0.8 μL of each primer (0.5 μM), 0.4 μL (200 ng) of the cDNA, and 8 μL of water. The reaction was conducted by: at 50° C. for 2 min; initial denaturation at 95° C. for 2 min; and at 95° C. for 15 sec, at 55° C. for 30 sec, and at 72° C. for 30 sec, conducting 40 cycles. 16S rRNA was used as a reference gene. A relative expression level of genes was calculated by a 2-AACT method.

PSA [9] = experiment: Drug resistance of PSA to the AMP (repeated subculture, MIC change); assay type: cell-based, Pseudomonas syringae pv. actinidiae; details: repeated treatment at 0.75, 1 and 1.25 MIC, 14 d
Method: Microbial resistance was determined according to a method of Steczko et al. (2009, Microbial inactivation properties of a new antimicrobial/antithrombotic catheter lock solution (citrate/methylene blue/parabens)). 10^5 CFU/mL of a PSA bacteria solution was treated with AMPs at final concentrations of 0.75 MIC, 1 MIC, and 1.25 MIC. After 24 h of incubation, the MIC was determined by microdilution assay. Subculture and MIC determination were conducted by the same method every day for a total of 14 d. The drug resistance of PSA was evaluated by observing changes of the MIC.

[10] = tested on: defense genes (PR1 and PR-10); experiment: RT-qPCR of defense genes in kiwifruit leaves; assay type: in vivo; details: PSA-inoculated kiwifruit leaves, 48 h
Method: The expression of defense genes (PRI and PR-10) in kiwifruit leaves was detected by RT-qPCR. The leaves were collected 48 h after AMP inoculation with PSA, and a total RNA was extracted from three leaf discs for each replicate, and cDNA was synthesized. The RT-qPCR was conducted using the method in Example 4. Actin was used as a reference gene. […] A relative expression level of genes was calculated by a 2-AACT method.

PSA [11] = assay type: cell-based, Pseudomonas syringae pv. actinidiae; details: 3 h
Method: The EC50 was determined according to a method of Gupta et al. (2015, Short, synthetic cationic peptides have antibacterial activity against Mycobacterium smegmatis by forming pores in membrane and synergizing with antibiotics). The PSA cells (10^5 CFU/mL) in a logarithmic growth phase were added to a 96-well microplate that was preloaded with different concentrations of the AMP synthesized in Example 1 (0.39 μg/mL to 12.5 μg/mL) or AS (62.5 μg/mL to 2,000 μg/mL), and then incubated at 28° C. for 3 h. A serially diluted mixture was spread on the LB agar plate, incubated for 48 h, and the colonies were counted. The EC50 was calculated by plotting percent killing as a function of the lg of AMP concentrations.

PSA cells [12] = experiment: Membrane depolarization with DiSC3(5); assay type: cell-based, Pseudomonas syringae pv. actinidiae; details: 1 MIC, 28° C., 30 min
Method: Membrane depolarization was measured using a membrane potential-sensitive cyano dye 3,3′-dipropylthiadicarbocyanine iodide (DiSC3(5)) according to a method of Juba et al. (2015, Helical cationic antimicrobial peptide length and its impact on membrane disruption). PSA cells (10^7 CFU/mL) were suspended in a PBS containing 50 μg/mL of the DiSC3(5) and added to a black 96-well microplate. The microplate was incubated in a SpectraMax i3 microplate reader (Molecular Devices, San Jose, USA), and monitored until fluorescence leveled off. 1 MIC of the AMP synthesized in Example 1 was added and incubated at 28° C. for 30 min; while the PBS was used as a control. The fluorescence intensity of each sample was measured at excitation/emission wavelengths of 622 nm/670 nm, respectively.

PSA cell membrane = experiment: Membrane permeabilization (OD260 of filtrates); assay type: cell-based, Pseudomonas syringae pv. actinidiae; details: 1 MIC, 120 min, relative to Triton X-100; increased from 2.61%
Method: Membrane permeabilization was determined according to a method of Dang et al. (2020, Antimicrobial peptides from the edible insect Musca domestica and their preservation effect on chilled pork). PSA cells (10^7 CFU/mL) in a logarithmic growth phase were incubated with 1 MIC of the AMP synthesized in Example 1 at 28° C. for 120 min. The resulting cultures were filtered through a 0.22 μm membrane and OD260 value of the filtrates were determined. 10 mM of a phosphate-buffered saline (PBS) and Triton X-100 were used as negative and positive controls, respectively. The membrane permeabilization was calculated according to the following formula: Permeabilization (%)=(OD260 AMP/OD260 Triton)×100%.

PSA genomic DNA = experiment: DNA gel retardation; assay type: binding, Pseudomonas syringae pv. actinidiae; details: 200 ng DNA, 15.63 ng to 1,000 ng AMP, 28° C., 30 min
Method: A PSA genomic DNA (200 ng) was incubated with different amounts of the AMP (15.63 ng to 1,000 ng) synthesized in Example 1 at 28° C. for 30 min. At the same time, sterile water was set as a control. After electrophoresis, DNA gel retardation was observed under UV illumination using a Bio-Rad Universal Hood II Gel Doc XR system (Hercules, USA).

Substance: WWKLLRKL-NH2 [AMP, Trp-Trp-Lys-Leu-Leu-Arg-Lys-Leu-NH2]
- MIC (PSA [1]): 3.13 µg/mL
- disease control effect (PSA [2]): 70.53%
- bacterial load in leaves (PSA [2]): 2.95 lg CFU/cm^2
- ROS fluorescence intensity, dose dependence (PSA cells [3]; 0.5 MIC to 2 MICs): increased in a dose-dependent manner
- ROS fluorescence intensity relative to control (PSA cells [3]; 2 MIC, 28° C., 2 h): 4.22 times that of the control
- MBC (PSA [4]; 48 h): 6.25 µg/mL
- cell morphology and intracellular changes (SEM/TEM) (PSA cells [5]): notable alterations in cell morphology
- esterase (FDA) fluorescence intensity relative to control [6]: 0.34 times that of the control
- calcium ion leakage (PSA cells [7]): 60.87 µM
- reduction of dnaA expression level vs control [8]: 80.64%
- reduction of dnaB expression level vs control [8]: 57.51%
- reduction of recA expression level vs control [8]: 35.28%
- reduction of recN expression level vs control [8]: 39.23%
- drug resistance of PSA (change of MIC) (PSA [9]): no drug resistance of PSA to AMP is observed; also recorded: no change was found in the MIC
- expression level of PR 1 relative to control [10]: 1.38 times that of the control group
- expression level of PR-10 relative to control [10]: 1.74 times that of the control
- EC50 (PSA [11]): 1.67 µg/mL
- membrane depolarization (DiSC3(5) fluorescence) (PSA cells [12]): significantly induced an increase in DiSC3 (5) fluorescence
- permeabilization of the PSA cell membrane (PSA cell membrane): 11.44%
- binding with PSA genomic DNA (gel retardation) (PSA genomic DNA): bind to the genomic DNA of PSA and retard the migration of DNA in a concentration-dependent manner

Substance: agricultural streptomycin [AS, reference compound]
- MIC (PSA [1]): 500 µg/mL
- disease control effect (PSA [2]): 55.80%
- bacterial load in leaves (PSA [2]): 4.48 lg CFU/cm^2
- MBC (PSA [4]; LB agar plate, 28° C., 48 h colony count): 1,000 μg/mL
